Reference: PubChem BioAssay (NCI)
“And” between values parts separate entries of the source, which are not always exact repeats. Equal entries are not always repeated.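 1) Cells in 96-well plates. 2) Compound, 48 h, 5 concentrations. 3) Linear interpolation between surrounding doses. 4) Unreached endpoint = highest concentration. GI50: concentration for 50% inhibition of growth. The concentration for full growth arrest is given as TGI.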

Tested on: HL-60(TB) leukemia
Assay: growth of human tumour cells (NCI), 48 h

Row | Compound | GI50 | TGI
1 | Cn1cc(CO)c2c1C(=O)C=C(N1CC1)C2=O | 2.68 µM | 18.1 µM
2 | CCN(CC)CCCC(CNc1ccnc2cc(Cl)ccc12)c1ccc(Cl)cc1 (centres undefined) | 1.75 µM and 1.52 µM | 3.79 µM and 3.62 µM
3 | [Cl][Hg][c]1cc(Br)cc(Br)c1 | 1.95 µM | 4.24 µM
4 | COc1ccc(C(C)=O)cc1N1C(=O)C2C(C1=O)C1(c3ccccc3)C(=O)C2(c2ccccc2)C(c2ccc(C)cc2)=C1c1ccc(C)cc1 (centres undefined) | > 100 µM | > 100 µM
5 | O=C1c2cccc(NCCCNCCO)c2C(=O)c2cccc(NCCCNCCO)c21 | – | 3.86 µM and 6.02 µM
6 | CCN(CC)c1ccc2c(c1)OC(N)=C(C#N)C2c1cc(OC)c2c(c1)OCO2 (centres undefined) | 0.0269 µM | 0.141 µM
7 | N#CC(=C1C=CC(=NO)C=C1)c1ccccc1 | 1.19 µM | 4.1 µM
8 | CCCCCCCCCCCCCC1=NC(C)(C)CN1C(C)C | 1.09 µM | 2.72 µM
9 | CC(C)=CCNc1ncnc2c1ncn2C1OC(CO)C(O)C1O (centres undefined) | 0.29 µM | 0.822 µM
10 | COc1ccc(CN2C(=O)/C(=C\C(=O)c3ccc(OCCN4CCCCC4)cc3)c3ccccc32)cc1 | 2.35 µM | 6.43 µM

Tested on: KM12 colon
Assay: growth of human tumour cells (NCI), 48 h

Row | Compound | GI50 | TGI
11 | OC[C@H]1C[C@](O)(c2ccc(Cl)cc2)[C@@H](c2ccc(Cl)cc2)O1 | 20.6 µM | 51 µM
12 | C=COCCCOc1ccccc1 | – | > 100 µM
13 | C=C(c1nc2ccc(Cl)cc2[nH]c1=O)C(O)c1ccc(C(O)C(=O)c2nc3ccc(Cl)cc3[nH]c2=O)cc1 (centres undefined) | – | > 100 µM
14 | O=c1c2sc(=S)n(-c3ccc(F)cc3)c2ncn1Cc1ccc(F)cc1F | > 100 µM | > 100 µM
15 | C=CCCCCC/C=C\[C@H](O)C#CC#C/C=C/CO | 18.3 µM | 33.7 µM
16 | COc1cc(C#CC(=O)OC/C=C/c2ccc3c(c2)OCO3)cc(OC)c1OC | – | > 100 µM
17 | O/N=C/C1C(OCc2ccccc2)C(OCc2ccccc2)C(OCc2ccccc2)CN1Cc1ccccc1 (centres undefined) | 14.4 µM and 2.86 µM | 47.2 µM and 19.6 µM
18 | O=C1NC(=O)C(c2cnc3ccccn23)=C1c1cn2c3c(cc(F)cc13)CN(C(=O)N1CCCCC1)CC2 | 10.6 µM | 25.4 µM
19 | Clc1nc2ccccc2nc1CI | 18.2 µM | 46.5 µM
20 | Cn1nc(N)c2cc([C@@H]3Nc4ccc5[nH]ncc5c4[C@H]4C5CCC(C5)[C@@H]34)ccc21 (some centres undefined) | 0.486 µM | 15.2 µM
21 | Cn1cc(CO)c2c1C(=O)C=C(N1CC1)C2=O | 0.0145 µM | 0.0855 µM
22 | CCN(CC)CCCC(CNc1ccnc2cc(Cl)ccc12)c1ccc(Cl)cc1 (centres undefined) | 1.77 µM and 1.54 µM | 3.52 µM and 4.33 µM
23 | [Cl][Hg][c]1cc(Br)cc(Br)c1 | 2.78 µM | 11.8 µM
24 | COc1ccc(C(C)=O)cc1N1C(=O)C2C(C1=O)C1(c3ccccc3)C(=O)C2(c2ccccc2)C(c2ccc(C)cc2)=C1c1ccc(C)cc1 (centres undefined) | > 100 µM | > 100 µM
25 | O=C1c2cccc(NCCCNCCO)c2C(=O)c2cccc(NCCCNCCO)c21 | – | 4.43 µM and 5.84 µM
26 | CCN(CC)c1ccc2c(c1)OC(N)=C(C#N)C2c1cc(OC)c2c(c1)OCO2 (centres undefined) | 0.0325 µM | 0.603 µM
27 | N#CC(=C1C=CC(=NO)C=C1)c1ccccc1 | 0.355 µM | 1.2 µM
28 | CCCCCCCCCCCCCC1=NC(C)(C)CN1C(C)C | 1.65 µM | 3.01 µM
29 | CC(C)=CCNc1ncnc2c1ncn2C1OC(CO)C(O)C1O (centres undefined) | 2.74 µM | > 630 µM
30 | COc1ccc(CN2C(=O)/C(=C\C(=O)c3ccc(OCCN4CCCCC4)cc3)c3ccccc32)cc1 | 12 µM | 28.6 µM

Tested on: HCT-116 colon
Assay: growth of human tumour cells (NCI), 48 h

Row | Compound | GI50 | TGI
31 | OC[C@H]1C[C@](O)(c2ccc(Cl)cc2)[C@@H](c2ccc(Cl)cc2)O1 | 17.3 µM | 35.6 µM
32 | C=COCCCOc1ccccc1 | – | > 100 µM
33 | C=C(c1nc2ccc(Cl)cc2[nH]c1=O)C(O)c1ccc(C(O)C(=O)c2nc3ccc(Cl)cc3[nH]c2=O)cc1 (centres undefined) | – | > 100 µM
34 | O=c1c2sc(=S)n(-c3ccc(F)cc3)c2ncn1Cc1ccc(F)cc1F | 81.8 µM | > 100 µM
35 | C=CCCCCC/C=C\[C@H](O)C#CC#C/C=C/CO | 22.6 µM | 48.6 µM
36 | COc1cc(C#CC(=O)OC/C=C/c2ccc3c(c2)OCO3)cc(OC)c1OC | – | > 100 µM
37 | O/N=C/C1C(OCc2ccccc2)C(OCc2ccccc2)C(OCc2ccccc2)CN1Cc1ccccc1 (centres undefined) | – | 22.6 µM and > 100 µM
38 | O=C1NC(=O)C(c2cnc3ccccn23)=C1c1cn2c3c(cc(F)cc13)CN(C(=O)N1CCCCC1)CC2 | 3.35 µM | > 89.8 µM
39 | Clc1nc2ccccc2nc1CI | 1.95 µM | 3.95 µM
40 | Cn1nc(N)c2cc([C@@H]3Nc4ccc5[nH]ncc5c4[C@H]4C5CCC(C5)[C@@H]34)ccc21 (some centres undefined) | 0.448 µM | 13.9 µM
41 | Cn1cc(CO)c2c1C(=O)C=C(N1CC1)C2=O | < 0.0106 µM | –
42 | CCN(CC)CCCC(CNc1ccnc2cc(Cl)ccc12)c1ccc(Cl)cc1 (centres undefined) | 1.54 µM and 0.925 µM | 6.12 µM and 2.36 µM
43 | [Cl][Hg][c]1cc(Br)cc(Br)c1 | 3.41 µM | 13.4 µM
44 | COc1ccc(C(C)=O)cc1N1C(=O)C2C(C1=O)C1(c3ccccc3)C(=O)C2(c2ccccc2)C(c2ccc(C)cc2)=C1c1ccc(C)cc1 (centres undefined) | > 100 µM | > 100 µM
45 | O=C1c2cccc(NCCCNCCO)c2C(=O)c2cccc(NCCCNCCO)c21 | – | 4.9 µM
46 | CCN(CC)c1ccc2c(c1)OC(N)=C(C#N)C2c1cc(OC)c2c(c1)OCO2 (centres undefined) | 0.0324 µM | 1.78 µM
47 | N#CC(=C1C=CC(=NO)C=C1)c1ccccc1 | 0.272 µM | 0.794 µM
48 | CCCCCCCCCCCCCC1=NC(C)(C)CN1C(C)C | 1.38 µM | 2.68 µM
49 | CC(C)=CCNc1ncnc2c1ncn2C1OC(CO)C(O)C1O (centres undefined) | 0.499 µM | 5.77 µM
50 | COc1ccc(CN2C(=O)/C(=C\C(=O)c3ccc(OCCN4CCCCC4)cc3)c3ccccc32)cc1 | 1.54 µM | 2.88 µM
